From patent US5215916A, “Super glucocorticoid receptors: receptors with increased affinity and specificity for glucocorticoid steriods” (priority 1991, dated 1993)
Structures can show the parent of a compound that is named as a salt.

How the values were obtained:
[1] = target: T1, C656G mutant glucocorticoid receptor (Rattus norvegicus, UniProt P06536, C656G/D98G); assay: Competition binding assay with [3H]Dex, COS-7 cytosol, C656G receptor; parameters: Thus the full length receptor was removed from the VARO vector with BamHI and inserted into the SVL vector; expressed in transfected cells; host or cells: COS-7 (cytosol)
T1 sequence (P06536 1-795 D98G/C656G): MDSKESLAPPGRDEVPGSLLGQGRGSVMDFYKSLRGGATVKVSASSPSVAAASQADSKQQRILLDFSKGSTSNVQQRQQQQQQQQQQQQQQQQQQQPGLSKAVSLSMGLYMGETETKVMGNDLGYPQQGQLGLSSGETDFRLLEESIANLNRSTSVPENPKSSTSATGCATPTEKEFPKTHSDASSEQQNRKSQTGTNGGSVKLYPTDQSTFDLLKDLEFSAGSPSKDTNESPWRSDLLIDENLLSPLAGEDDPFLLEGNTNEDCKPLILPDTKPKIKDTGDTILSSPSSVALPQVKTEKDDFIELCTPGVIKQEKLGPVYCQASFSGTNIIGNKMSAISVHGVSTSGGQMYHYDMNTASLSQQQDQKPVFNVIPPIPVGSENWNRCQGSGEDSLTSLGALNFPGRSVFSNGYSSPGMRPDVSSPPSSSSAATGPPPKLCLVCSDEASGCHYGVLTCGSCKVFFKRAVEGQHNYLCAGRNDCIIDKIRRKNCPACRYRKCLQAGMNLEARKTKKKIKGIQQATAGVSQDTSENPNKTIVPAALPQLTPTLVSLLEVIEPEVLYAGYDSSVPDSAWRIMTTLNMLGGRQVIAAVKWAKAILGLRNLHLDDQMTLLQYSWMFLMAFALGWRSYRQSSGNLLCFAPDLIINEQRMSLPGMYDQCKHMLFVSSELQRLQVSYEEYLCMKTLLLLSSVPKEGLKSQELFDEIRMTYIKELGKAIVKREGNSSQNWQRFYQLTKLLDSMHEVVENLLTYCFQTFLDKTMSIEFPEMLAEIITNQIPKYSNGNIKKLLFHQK
Method: Monolayer cultures of COS-7 cells were grown in DMEM (Gibco) supplemented with 5% fetal bovine serum (FBS) (Biofluids) at 37° C. in a 5% CO2 incubator. Standard calcium phosphate transfection methods were used to introduce the wild type and mutant receptor expression vectors (pSVL) into COS-7 cells (100 mm plates [Costar] at a cell density of about 10^6 /plate were each treated with 10 μg of plasmid DNA). After ~16 hrs of incubation at 37° C. in a 5% CO2 incubator, the excess calcium phosphate and precipitate were removed by washing with phosphate buffered saline (PBS). The cells were incubated at 37° C. for another ~48 hr in DMEM/ 5% FBS and harvested by trypsinization followed by centrifugation (for 10 min at 1570 ×g) and washing 3 times with PBS. The washed cells were stored at -80° C. until used.
COS-7 cell cytosol containing the steroid-free receptors was prepared by cell lysis at -80° C. and centrifugation at 15,000 ×g and labeled as described for HTC cells (S. S. Simons and P. A. Miller, Biochem 23:6876-6882 (1984)). Briefly, 30% cytosol solutions containing ~21 mM Na2 MoO4 were prepared with three parts COS-7 cell cytosol, 2 parts pH 9.5 TAPS buffer, and 5 parts pH 8.8 TAPS buffer. The total EtOH in each experiment was kept constant and at a level of ≤1%. […] After incubation for 2.5 hr, the [^3 H]Dex-Mes-labeled solutions were quick-frozen at -78° C. for subsequent SDS-polyacrylamide gel electrophoresis analysis. The specifically bound [^3 H]Dex was determined by first adding a 10% dextran-coated charcoal solution (added volume =20% of reaction solution volume) to remove free steroid and then subtracting the nonspecific binding seen in the presence of excess nonradioactive Dex.
Duplicate aliquots (72 μl) of COS-7 cell cytosol (33.5% in pH 8.8 TAPS/27 mM Na2 MoO4 buffer) were treated with 4 μl each of [^3 H]Dex (in pH 8.8 TAPS buffer) and various concentrations of non-radioactive competing steroid (in 20% EtOH in pH 8.8 TAPS buffer) (final concentration of [^3 H]Dex ≈3 ×10^-8 M). The average specific binding was determined after 2.5 or 24 hr of incubation as described above, expressed as percentage of the non-competed control and plotted versus the log10 of the concentration of the competing steroid.
The specificity of steroid binding was determined by Rodbard correction (Rodbard, 1973) of the data from a competition binding assay (S. S. Simons et al., Biochem. Biophys. Res. Comm. 86:793-800 (1979); Miller and Simons, 1988). The initial data were collected from 2.5 hr binding assays because of concerns about the stability of the receptors over longer times.

[2] = target: T1, C656G mutant glucocorticoid receptor; details: CV-1 cells, FIG. 1; C656G vs wild type
Method: The biological activity of wild type (.quadrature.) or C656G mutant ( ) receptors was determined in CV-1 cells as described in the Example Section. The determined amounts of CAT activity from each plate were then plotted as a function of the concentration of dexamethasone added to each.
Subconfluent cultures of CV-1 cells were co-transfected, using the standard calcium phosphate procedure, with 0.2 μg VARO receptor expression vector (containing the mutant receptor driven by the SV40 enhancer and the α-globulin promoter) and 1 μg G46TCO reporter vector (CAT gene driven by the thymidine kinase promoter [to -109 bp] and a 46 bp synthetic GRE derived from the murine mammary tumor virus long terminal repeat) for each 60 mm dish. Cells were incubated overnight at 37° C. in a 5% CO2 incubator with the DNA precipitates, after which they were washed twice with PBS, and fresh medium (Dulbecco's modified Eagle's medium H-16 supplemented with 5% fetal calf serum) was added together with the indicated hormone.
After an additional 24 hr, at 37° C. in a 5% CO2 incubator, extracts were prepared by four freeze-thaw cycles (-75° C., 65° C.) and centrifuged for 5 min at 15,000 xg. Heat-treated extracts (5 min, 65° C.) were normalized for protein content and the amount of expressed CAT enzyme activity was determined by a non-chromatographic assay (M. J. Sleigh, Anal. Biochem. 156:251-256 (1986)).

glucocorticoid receptor = details: Simons et al., 1987; cited from earlier work
[3] = system: mouse glucocorticoid receptor; details: L. I. Smith et al., 1988; cited from earlier work
[4] = system: any other steroid receptors; details: cited from earlier work
glucocorticoid receptors = details: cited from earlier work

## C[C@@H]1C[C@H]2[C@@H]3CCC4=CC(=O)C=C[C@]4(C)[C@@]3(F)[C@@H](O)C[C@]2(C)[C@@]1(O)C(=O)CO [Dex, dexamethasone]
[1]
  greater preference of C656G than wild type receptor for glucocorticoids vs aldosterone and progesterone: 10-19 fold
[2]
  lower concentrations for Dex induction of CAT activity with C656G than with wild type receptor: ~ 10 fold

## C[C@@H]1C[C@H]2[C@@H]3CCC4=CC(=O)C=C[C@]4(C)[C@@]3(F)[C@@H](O)C[C@]2(C)[C@@]1(O)C(=O)COS(C)(=O)=O [Dex-Mes, dexamethasone mesylate]
Glucocorticoid receptor
  covalent labeling of receptor thiol by Dex-Mes: covalently label just one thiol in the receptor, i.e., cysteine 656
[3]
  labeling of the identical cysteine in mouse receptor by Dex-Mes: also labeled

## O=[As][O-].[Na+] [arsenite]
[4]
  effect on steroid binding activity of other steroid receptors: not of any other steroid receptors
Glucocorticoid receptors
  effect of preincubation of unbound receptors on steroid binding: eliminates all steroid binding
  effect on steroid binding activity of glucocorticoid receptors: blocks the steroid binding activity of glucocorticoid receptors
